# Measured values as given in patent US5663197A, “2-(1-hydroxyethyl)-5-hydroxynaphtho[2,3-b]furan-4,9-dione and antitumor agents comprising this compound” (priority 1992, dated 1997).
# What was measured:
# Format in all cases: cell-based
# [1] = test system: Human pancreatic carcinoma ASPC-1 cells; assay: In vitro antitumor test (trypan blue exclusion viable cell count), ASPC-1
# Protocol: (§1) An appropriate amount of NFD was dissolved in DMSO to give a 1.0 mg/ml stock solution, which was diluted as necessary before use.
# (§2) The following cells in the late logarithmic phase were harvested after treatment with trypsin (containing 0.25% trypsin and 0.02% EDTA; 37° C., 3 min) and used in the test: human lung adenocarcinoma cell lines A-549, VMRC-LCD and SK-LU-1, human lung squamous cell carcinoma Calu-1 cells, human colon adenocarcinoma WiDr cells, human prostate cancer LNCaP cells, human vaginal squamous cell carcinoma A-431 cells, human cervical carcinoma HeLa cells, human cholangiocarcinoma HuCC-T1 cells, mouse skin cancer melanoma B16 (M4) cells, human pancreatic carcinoma ASPC-1 cells, human neuroblastoma IMR-132 cells, human lung small cell carcinoma SCCH-194 cells, human uninary bladder carcinoma T24 cells, human renal cell carcinoma […] cells, human gastric cancer NUGC-2 cells, human thyroid carcinoma 8305C cells, human hepatoma HUH-7 cells, human ovarian carcinoma TYK-nu cells and human chorio carcinoma BeWo cells. […] These cells were plated onto a 96-well microplate at a density of 5-10×10^3 cells/cm^2 using DMEM or RPMI-1640 medium containing 10% fetal bovine serum and cultured for 24 hours in a conventional manner, after which a pre-determined amount of NFD dissolved in DMSO was added to each well. […]
# [2] = test system: Normal human tracheal epithelial cells; assay: In vitro growth test on normal cells, tracheal epithelial cells
# Protocol: as §1, §2
# [3] = test system: Human ovarian carcinoma TYK-nu cells; assay: In vitro antitumor test (trypan blue exclusion viable cell count), TYK-nu
# Protocol: as §1
# as §2, with “cells. Suspension cultures of human breast cancer MRK-nu-1 cells, human malignant B-cell lymphoma cells and human chronic myelogenous leukemia K562 cells were used to harvest the cells to be used in the test.” for “cells.”, “well. Cultivation was continued, and the number of viable cells was counted after 24, 48 and 72 hours.” for “well.”
# (§3) Growth inhibitory action and lethal activity of NFD on various types of malignant tumor cells and normal human cells listed above were evaluated by counting the number of viable cells in each well of the 96-well microplate. […]
# [4] = test system: Human uninary bladder carcinoma T24 cells; assay: In vitro antitumor test (trypan blue exclusion viable cell count), T24
# Protocol: as §1, §2
# [5] = test system: Human breast cancer MRK-nu-1 cells; assay: In vitro antitumor test (trypan blue exclusion viable cell count), MRK-nu-1
# Protocol: as §1, §2
# [6] = test system: Human hepatoma HuH-7 cells; assay: In vitro antitumor test (trypan blue exclusion viable cell count), HuH-7
# Protocol: as §1, §2
# [7] = test system: Human prostate cancer LNCaP cells; assay: In vitro antitumor test (trypan blue exclusion viable cell count), LNCaP
# Protocol: as §1
# as §2, with “cells. Suspension cultures of human breast cancer MRK-nu-1 cells, human malignant B-cell lymphoma cells and human chronic myelogenous leukemia K562 cells were used to harvest the cells to be used in the test.” for “cells.”, “well. Cultivation was continued, and the number of viable cells was counted after 24, 48 and 72 hours.” for “well.”
# as §3
# [8] = test system: Human lung small cell carcinoma SCCH-194 cells; assay: In vitro antitumor test (trypan blue exclusion viable cell count), SCCH-194
# Protocol: as §1, §2
smiles,measurement,setting,value
"CC(O)c1cc2c(o1)C(=O)c1cccc(O)c1C2=O (stereo not drawn) [NFD, 2-(1-hydroxyethyl)-5-hydroxynaphtho[2,3-b]furan-4,9-dione]",IC50,"[1]; ASPC1, 72 h, ASPC-1, three days exposure, read-out: LD50 (IC50), 50% growth-inhibitory dose",0.017 µg/mL
same,IC (almost complete),"[1]; ASPC1, FIG. 13, read-out: concentration inhibiting growth almost completely",0.0335 µg/mL
same,adverse effects on growth of normal cells,"[2]; FIG. 25, at concentrations which cause necrosis in tumor cells",no adverse effects
same,IC50,"[2]; Homo sapiens, Epithelial cell, 72 h, normal tracheal epithelial cells, three days exposure, read-out: LD50 (IC50), 50% growth-inhibitory dose",> 0.055 µg/mL
same,concentration causing necrosis in almost all tumor cells,[3]; FIG. 22,≥ 40 ng/mL
same,IC50,"[3]; Homo sapiens, 72 h, TYK-nu, three days exposure, read-out: LD50 (IC50), 50% growth-inhibitory dose",0.017 µg/mL
same,IC (almost complete),"[3]; Homo sapiens, FIG. 22, read-out: concentration inhibiting growth almost completely",0.02 µg/mL
same,IC50,"[4]; T-24, 72 h, T24, three days exposure, read-out: LD50 (IC50), 50% growth-inhibitory dose",0.021 µg/mL
same,IC (almost complete),"[4]; T-24, FIG. 16, read-out: concentration inhibiting growth almost completely",0.023 µg/mL
same,IC50,"[5]; 72 h, three days exposure, read-out: LD50 (IC50), 50% growth-inhibitory dose",0.012 µg/mL
same,IC (almost complete),"[5]; FIG. 20, read-out: concentration inhibiting growth almost completely",0.033 µg/mL
same,IC50,"[6]; 72 h, HuH-7, three days exposure, read-out: LD50 (IC50), 50% growth-inhibitory dose",0.0055 µg/mL
same,IC (almost complete),"[6]; Huh-7, FIG. 21, read-out: concentration inhibiting growth almost completely",0.02 µg/mL
same,concentration causing necrosis in almost all tumor cells,[7]; FIG. 6 (LNCaP; sentence prints human colon adenocarcinoma cells),22.4 to 55.9 ng/mL
same,IC (almost complete),"[7]; FIG. 6 (LNCaP; sentence prints human colon adenocarcinoma cells), read-out: concentration inhibiting growth almost completely",0.0112 µg/mL
same,IC50,"[7]; Homo sapiens, 72 h, LNCaP, three days exposure, read-out: LD50 (IC50), 50% growth-inhibitory dose",0.0017 µg/mL
same,IC50,"[8]; 72 h, SCCH-194, three days exposure, read-out: LD50 (IC50), 50% growth-inhibitory dose",0.01 µg/mL
same,IC (almost complete),"[8]; FIG. 15, read-out: concentration inhibiting growth almost completely",0.03 µg/mL
